Measured values: article PMC9839384 (Slas Discovery, 2023)

Tests used:
[1] = target: SARS-CoV-2 3CLpro (Severe acute respiratory syndrome coronavirus 2, UniProt P0DTD1); assay type: cell-based
[2] = tested on: SARS-CoV-2 3CLpro-HA, RLuc, FLuc in HEK293T cells; assay type: cell-based; conditions: actin as control
[3] = target: 3CLpro (Severe acute respiratory syndrome coronavirus 2, UniProt P0DTD1); assay: 3CLpro biochemical inhibition assay; set-up: species or system SARS-CoV-2
[4] = tested on: 293T cells; conditions: initial screening

SMILES	inhibition against viral proteases, in words [1]	protein expression by western blot [2]	potency in the enzymatic assay, in words [3]	Emax ([3]; Supplementary Fig. 2, panel D)	cytotoxicity, in words [4]
CCN1CCN(Cc2ccc(NC(=O)Nc3ccc(Oc4cc(NC)ncn4)cc3)cc2C(F)(F)F)CC1 [AST-487]	some selective SARS 3CLpro inhibition but only at the highest concentration tested	–	–	–	–
CC(C)C[C@H](NC(=O)[C@H](CCc1ccccc1)NC(=O)CN1CCOCC1)C(=O)N[C@@H](Cc1ccccc1)C(=O)N[C@@H](CC(C)C)C(=O)[C@@]1(C)CO1 [Carfilzomib]	inhibited all the proteases tested	decrease in all exogenously expressed constructs	–	–	–
O=C(/C=C/c1ccc(Cl)c(Cl)c1)Nc1ccccc1C(=O)O [SR-32229]	–	–	low-µM affinity	~100 % of tranilast	–
COc1ccc(/C=C/C(=O)Nc2ccccc2C(=O)O)cc1OC [Tranilast, (E)-2-(3-(3,4-dimethoxyphenyl)acrylamido)benzoic acid]	SARS 3CLpro specific inhibition	–	–	–	nontoxic
